Measured values reported in ChEMBL document CHEMBL1157501, “Novel fluorinated acridone derivatives. Part 1: synthesis and evaluation as potential anticancer agents” (Bioorg Med Chem Lett, 2008).

What was measured:
[1] = system: DU-145; assay: Anticancer activity against human DU145 cells; type: functional
[2] = system: MCF7; assay: Anticancer activity against human MCF7 cells; type: functional
[3] = system: NCI/ADR-RES; assay: Anticancer activity against human NCI/ADR-RES cells; type: functional
[4] = system: MDA-MB-231; assay: Anticancer activity against human MDA-MB-231 cells; type: functional
[5] = system: Hs-578T; assay: Anticancer activity against human HS578T cells; type: functional
[6] = system: MDA-MB-435; assay: Anticancer activity against human MDA-MB-435 cells; type: functional
[7] = system: BT-549; assay: Anticancer activity against human BT549 cells; type: functional
[8] = system: T47D; assay: Anticancer activity against human T47D cells; type: functional
[9] = system: MDA-MB-468; assay: Anticancer activity against human MDA-MB-468 cells; type: functional
[10] = system: MCF7; assay: Growth inhibition of human MCF7 cells at 10 uM relative to control; type: functional
[11] = system: T47D; assay: Growth inhibition of human T47D cells at 10 uM relative to control; type: functional
[12] = system: HOP-92; assay: Growth inhibition of human HOP92 cells at 10 uM relative to control; type: functional
[13] = system: HCT-116; assay: Growth inhibition of human HCT116 cells at 10 uM relative to control; type: functional
[14] = system: HT-29; assay: Growth inhibition of human HT29 cells at 10 uM relative to control; type: functional
[15] = system: MOLT-4; assay: Growth inhibition of human MOLT4 cells at 10 uM relative to control; type: functional
[16] = Growth inhibition of human HL60(TB) cells at 10 uM relative to control; type: functional, HL-60(TB); conditions: HL-60
[17] = system: CAKI-1; assay: Growth inhibition of human CAKI1 cells at 10 uM relative to control; type: functional
[18] = system: 786-0; assay: Growth inhibition of human 786-0 cells at 10 uM relative to control; type: functional
[19] = system: UACC-257; assay: Growth inhibition of human UACC257 cells at 10 uM relative to control; type: functional
[20] = system: SK-MEL-28; assay: Growth inhibition of human SK-MEL-28 cells at 10 uM relative to control; type: functional
[21] = system: SF-295; assay: Growth inhibition of human SF295 cells at 10 uM relative to control; type: functional
[22] = system: SNB-75; assay: Growth inhibition of human SNB75 cells at 10 uM relative to control; type: functional
[23] = system: CCRF-CEM; assay: Anticancer activity against human CCRF-CEM cells; type: functional
[24] = Anticancer activity against human HL60(TB) cells; type: functional; conditions: HL-60
[25] = system: K562; assay: Anticancer activity against human K562 cells; type: functional
[26] = system: MOLT-4; assay: Anticancer activity against human MOLT4 cells; type: functional
[27] = system: RPMI-8226; assay: Anticancer activity against human RPMI8226 cells; type: functional
[28] = system: A549; assay: Anticancer activity against human A549 cells; type: functional
[29] = system: EKVX; assay: Anticancer activity against human EKVX cells; type: functional
[30] = system: HOP-62; assay: Anticancer activity against human HOP62 cells; type: functional
[31] = system: HOP-92; assay: Anticancer activity against human HOP92 cells; type: functional
[32] = system: NCI-H226; assay: Anticancer activity against human NCI-H226 cells; type: functional
[33] = system: NCI-H23; assay: Anticancer activity against human NCI-H23 cells; type: functional
[34] = system: NCI-H322M; assay: Anticancer activity against human NCI-H322M cells; type: functional
[35] = system: NCI-H460; assay: Anticancer activity against human NCI-H460 cells; type: functional
[36] = system: NCI-H522; assay: Anticancer activity against human NCI-H522 cells; type: functional
[37] = system: COLO 205; assay: Anticancer activity against human COLO205 cells; type: functional
[38] = system: HCC 2998; assay: Anticancer activity against human HCC2998 cells; type: functional
[39] = system: HCT-116; assay: Anticancer activity against human HCT116 cells; type: functional
[40] = system: HCT-15; assay: Anticancer activity against human HCT15 cells; type: functional
[41] = system: HT-29; assay: Anticancer activity against human HT29 cells; type: functional
[42] = system: KM12; assay: Anticancer activity against human KM12 cells; type: functional
[43] = system: SW-620; assay: Anticancer activity against human SW620 cells; type: functional
[44] = system: SF-268; assay: Anticancer activity against human SF268 cells; type: functional
[45] = system: SF-295; assay: Anticancer activity against human SF295 cells; type: functional
[46] = system: SF-539; assay: Anticancer activity against human SF539 cells; type: functional
[47] = system: SNB-19; assay: Anticancer activity against human SNB19 cells; type: functional
[48] = system: SNB-75; assay: Anticancer activity against human SNB75 cells; type: functional
[49] = system: U-251; assay: Anticancer activity against human U251 cells; type: functional
[50] = system: LOX IMVI; assay: Anticancer activity against human LOX IMVI cells; type: functional
[51] = system: Malme-3M; assay: Anticancer activity against human MALME-3M cells; type: functional
[52] = system: M14; assay: Anticancer activity against human M14 cells; type: functional
[53] = system: SK-MEL-28; assay: Anticancer activity against human SK-MEL-28 cells; type: functional
[54] = system: SK-MEL-5; assay: Anticancer activity against human SK-MEL-5 cells; type: functional
[55] = system: UACC-257; assay: Anticancer activity against human UACC257 cells; type: functional
[56] = system: UACC-62; assay: Anticancer activity against human UACC62 cells; type: functional
[57] = system: IGROV-1; assay: Anticancer activity against human IGROV1 cells; type: functional
[58] = system: OVCAR-3; assay: Anticancer activity against human OVCAR-3 cells; type: functional
[59] = system: OVCAR-4; assay: Anticancer activity against human OVCAR4 cells; type: functional
[60] = system: OVCAR-5; assay: Anticancer activity against human OVCAR5 cells; type: functional
[61] = system: OVCAR-8; assay: Anticancer activity against human OVCAR8 cells; type: functional
[62] = system: SK-OV-3; assay: Anticancer activity against human SKOV3 cells; type: functional
[63] = system: 786-0; assay: Anticancer activity against human 786-0 cells; type: functional
[64] = system: A498; assay: Anticancer activity against human A498 cells; type: functional
[65] = system: ACHN; assay: Anticancer activity against human ACHN cells; type: functional
[66] = system: CAKI-1; assay: Anticancer activity against human CAKI1 cells; type: functional
[67] = system: SN12C; assay: Anticancer activity against human SN12C cells; type: functional
[68] = system: TK-10; assay: Anticancer activity against human TK10 cells; type: functional
[69] = system: UO-31; assay: Anticancer activity against human UO31 cells; type: functional
[70] = system: PC-3; assay: Anticancer activity against human PC3 cells; type: functional
[71] = system: A549; assay: Growth inhibition of human A549 cells at 10 uM relative to control; type: functional
[72] = system: CCRF-CEM; assay: Growth inhibition of human CCRF-CEM cells at 10 uM relative to control; type: functional
[73] = system: BT-549; assay: Antiproliferative activity against human BT549 cells after 72 hrs by alamar blue assay; type: functional, cell-based; conditions: BT-549, 72 h
[74] = system: BT-20; assay: Antiproliferative activity against human BT20 cells after 72 hrs by Alamar Blue assay; type: functional, cell-based; conditions: BT-20, 72 h
[75] = system: SW480; assay: Antiproliferative activity against human SW480 cells after 72 hrs by Alamar Blue assay; type: functional, cell-based; conditions: SW480, 72 h
[76] = system: Jurkat; assay: Antiproliferative activity against human Jurkat cells after 72 hrs by Alamar Blue assay; type: functional, cell-based

O=C1CC(C(F)(F)F)Cc2nc3c(Br)cc(Br)cc3cc21 (stereo unspecified)
GI50 [1]: 4.13 µM | GI50 [2]: 0.13 µM | GI50 [3]: 2.55 µM | GI50 [4]: 5.89 µM | GI50 [5]: 16.3 µM | GI50 [6]: 1.56 µM | GI50 [7]: 4.63 µM | GI50 [8]: 3.55 µM | GI50 [9]: 5.11 µM | inhibition at 10 µM [10]: 41% | inhibition at 10 µM [11]: 66% | inhibition at 10 µM [12]: 57% | inhibition at 10 µM [13]: 64% | inhibition at 10 µM [14]: 77% | inhibition at 10 µM [15]: 31% | inhibition at 10 µM [16]: 58% | inhibition at 10 µM [17]: 44% | inhibition at 10 µM [18]: 54% | inhibition at 10 µM [19]: 39% | inhibition at 10 µM [20]: 40% | inhibition at 10 µM [21]: 61% | inhibition at 10 µM [22]: 76% | GI50 [23]: 21.9 µM | GI50 [24]: 2.94 µM | GI50 [25]: 6.23 µM | GI50 [26]: 20.8 µM | GI50 [27]: 4.32 µM | GI50 [28]: 4.65 µM | GI50 [29]: 3.54 µM | GI50 [30]: 4.52 µM | GI50 [31]: 11.2 µM | GI50 [32]: 10.7 µM | GI50 [33]: 3.14 µM | GI50 [34]: 6.26 µM | GI50 [35]: 3.1 µM | GI50 [36]: 11.1 µM | GI50 [37]: 3.23 µM | GI50 [38]: 2.6 µM | GI50 [39]: 4.03 µM | GI50 [40]: 3.35 µM | GI50 [41]: 4.42 µM | GI50 [42]: 2.02 µM | GI50 [43]: 15.7 µM | GI50 [44]: 4.35 µM | GI50 [45]: 2.96 µM | GI50 [46]: 2.85 µM | GI50 [47]: 11.3 µM | GI50 [48]: 1.46 µM | GI50 [49]: 11.9 µM | GI50 [50]: 19 µM | GI50 [51]: 7.15 µM | GI50 [52]: 5.47 µM | GI50 [53]: 8.98 µM | GI50 [54]: 5.03 µM | GI50 [55]: 16.1 µM | GI50 [56]: 9.87 µM | GI50 [57]: 1.29 µM | GI50 [58]: 1.79 µM | GI50 [59]: 6.49 µM | GI50 [60]: 1.91 µM | GI50 [61]: 26 µM | GI50 [62]: 7.55 µM | GI50 [63]: 8.12 µM | GI50 [64]: 2.69 µM | GI50 [65]: 17.5 µM | GI50 [66]: 5.03 µM | GI50 [67]: 8.82 µM | GI50 [68]: 7.89 µM | GI50 [69]: 3.86 µM | GI50 [70]: 5.75 µM

Cc1c2c(nc3cc4c(cc13)OCO4)CC(C(F)(F)F)CC2=O (stereo unspecified)
inhibition at 10 µM [10]: < 20% | inhibition at 10 µM [11]: < 20% | inhibition at 10 µM [12]: < 20% | inhibition at 10 µM [71]: 67% | inhibition at 10 µM [13]: < 20% | inhibition at 10 µM [14]: < 20% | inhibition at 10 µM [15]: < 20% | inhibition at 10 µM [16]: < 20% | inhibition at 10 µM [72]: < 20% | inhibition at 10 µM [17]: < 20% | inhibition at 10 µM [18]: < 20% | inhibition at 10 µM [19]: < 20% | inhibition at 10 µM [20]: < 20% | inhibition at 10 µM [21]: 32% | inhibition at 10 µM [22]: 25%

O=C1CC(C(F)(F)F)Cc2nc3ccc(Cl)cc3c(-c3ccccc3)c21 (stereo unspecified)
IC50 [73]: 16.1 µM | IC50 [74]: 22.1 µM | IC50 [75]: 28.4 µM | IC50 [76]: 12.3 µM | inhibition at 10 µM [10]: < 20% | inhibition at 10 µM [11]: < 20% | inhibition at 10 µM [12]: 37% | inhibition at 10 µM [71]: 80% | inhibition at 10 µM [13]: 25% | inhibition at 10 µM [14]: < 20% | inhibition at 10 µM [72]: < 20% | inhibition at 10 µM [17]: 66% | inhibition at 10 µM [18]: < 20% | inhibition at 10 µM [19]: 40% | inhibition at 10 µM [20]: < 20% | inhibition at 10 µM [21]: 48% | inhibition at 10 µM [22]: < 20%

O=C1CC(C(F)(F)F)Cc2nc3ccc(Cl)cc3c(-c3ccccc3Cl)c21 (stereo unspecified)
IC50 [73]: 39.3 µM | IC50 [74]: 42.1 µM | IC50 [75]: 21.3 µM | IC50 [76]: 87.6 µM | inhibition at 10 µM [10]: < 20% | inhibition at 10 µM [11]: < 20% | inhibition at 10 µM [12]: 38% | inhibition at 10 µM [71]: 50% | inhibition at 10 µM [13]: 38% | inhibition at 10 µM [14]: < 20% | inhibition at 10 µM [15]: 46% | inhibition at 10 µM [16]: < 20% | inhibition at 10 µM [72]: 60% | inhibition at 10 µM [17]: < 20% | inhibition at 10 µM [18]: < 20% | inhibition at 10 µM [19]: < 20% | inhibition at 10 µM [20]: < 20% | inhibition at 10 µM [21]: < 20% | inhibition at 10 µM [22]: < 20%
